US10851082B2, “Substituted aromatic n-heterocyclic compounds as inhibitors of mitogen-activated protein kinase interacting kinase 1 (MNK1) and 2 (MNK2)” (Northwestern University, priority 2015, dated 2020)
Like-named read-outs stand apart in the source and are kept apart here.

Tests used:
Mnk1 = Mnk1 (Homo sapiens (Human), UniProt Q9BUB5); assay: Mnk1 kinase inhibition, ADP-Glo ADP monitoring assay; format: biochemical
Mnk2 = Mnk2 (Homo sapiens (Human), UniProt Q9HBH9); assay: Mnk2 kinase inhibition, ADP-Glo ADP monitoring assay; format: biochemical
[1] = read-out: Mnk1 inhibition IC50 (+,++,+++)
[2] = ADP-Glo kinase assay, read-out: Mnk2 inhibition IC50 (+,++,+++)
[3] = unit inferred, read-out: Mnk1 IC50
[4] = ADP-Glo kinase assay, unit inferred, read-out: Mnk2 IC50
[5] = ADP-Glo kinase assay, read-out: Mnk2 IC50

Mnk1, sequence (Q9BUB5 whole entry): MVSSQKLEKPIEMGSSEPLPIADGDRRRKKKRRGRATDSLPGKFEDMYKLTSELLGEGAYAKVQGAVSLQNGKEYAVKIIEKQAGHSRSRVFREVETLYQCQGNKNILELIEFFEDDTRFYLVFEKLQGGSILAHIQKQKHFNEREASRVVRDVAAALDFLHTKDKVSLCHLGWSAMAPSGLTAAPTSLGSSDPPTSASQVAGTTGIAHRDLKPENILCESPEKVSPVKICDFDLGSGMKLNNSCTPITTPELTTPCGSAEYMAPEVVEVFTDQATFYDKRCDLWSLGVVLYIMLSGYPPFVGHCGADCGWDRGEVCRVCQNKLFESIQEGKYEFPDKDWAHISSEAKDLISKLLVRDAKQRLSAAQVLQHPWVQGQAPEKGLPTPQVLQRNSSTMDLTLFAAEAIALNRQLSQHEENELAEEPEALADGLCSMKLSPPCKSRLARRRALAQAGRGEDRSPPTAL
Mnk2, sequence (Q9HBH9 whole entry): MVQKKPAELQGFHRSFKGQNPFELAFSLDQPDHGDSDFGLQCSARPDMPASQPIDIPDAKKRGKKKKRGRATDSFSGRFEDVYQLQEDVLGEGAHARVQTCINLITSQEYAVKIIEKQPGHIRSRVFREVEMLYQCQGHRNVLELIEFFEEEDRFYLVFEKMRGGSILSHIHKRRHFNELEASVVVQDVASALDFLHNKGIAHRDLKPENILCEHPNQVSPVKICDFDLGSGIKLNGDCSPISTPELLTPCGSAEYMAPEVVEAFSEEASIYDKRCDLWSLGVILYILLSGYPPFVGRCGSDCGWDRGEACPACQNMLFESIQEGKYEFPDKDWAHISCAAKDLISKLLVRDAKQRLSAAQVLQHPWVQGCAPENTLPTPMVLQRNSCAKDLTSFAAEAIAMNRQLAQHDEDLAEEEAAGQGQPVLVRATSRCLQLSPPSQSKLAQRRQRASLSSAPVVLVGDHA

| Structure (SMILES) | IC50 (Mnk1; [1]) | IC50 (Mnk2; [2]) | IC50 (Mnk1; read-out: Mnk1 IC50) | further results |
| --- | --- | --- | --- | --- |
| Clc1cc(Cl)nc(CCOc2ncc(Cl)c(-n3cnc4ccccc43)n2)c1 [NUCC-0201022] | 1000 to 10000 nM | – | – | IC50 (Mnk2): 1000 to 10000 nM |
| NC1CC(Oc2nc(-n3cnc4ccccc43)c3ccccc3n2)C1 (stereo not drawn) [NUCC-0201894] | < 1000 nM | < 1000 nM | – | – |
| c1ccc2c(c1)ncn2-c1ccnc(NCCc2c[nH]c3ccccc23)n1 [NUCC-0196260] | – | – | – | IC50 (Mnk1; [3]): 500 nM; IC50 (Mnk2; [4]): 90 nM |
| O=[N+]([O-])c1ccc(NCCNc2nccc(-n3cnc4ccccc43)n2)nc1 [NUCC-0176365] | – | – | 7400 nM | IC50 (Mnk2; [5]): 2100 nM |
| Cn1cc(-c2ccnc(NCCCN3CCCCC3)n2)cn1 [NUCC-0060895] | – | – | 5000 nM | – |
| COC(=O)c1cc(-n2cnc3ccccc32)nc(NCCc2ccncc2)n1 [NUCC-0196230] | – | – | – | IC50 (Mnk1; [3]): > 10000 nM; IC50 (Mnk2; [4]): > 10000 nM |
| N#Cc1cnc(-n2cnc3ccccc32)nc1OCCc1ccnc(F)c1 [NUCC-0201907] | < 1000 nM | < 1000 nM | – | – |
| N#Cc1cn(-c2nc(OC3CC(N)C3)ncc2Cl)cn1 (stereo not drawn) [NUCC-0201246] | 1000 to 10000 nM | – | – | IC50 (Mnk2): 1000 to 10000 nM |
| N#Cc1cnc(-n2cnc3ccccc32)nc1OC1CCc2cccnc21 (stereo not drawn) [NUCC-0200906] | 1000 to 10000 nM | < 1000 nM | – | – |
| Cn1cc(-c2ccnc(N3CCC[C@H]3CO)n2)cn1 [NUCC-0060896] | – | – | 3000 nM | IC50 (Mnk2; [5]): 3400 nM |
| Brc1cnc(NCCc2ccncc2)nc1-n1ccnc1 [NUCC-0196229] | – | – | – | IC50 (Mnk2; [4]): 1200 nM |
| COc1cccc(-n2cc(-c3ccnc(NC4CCOC4)n3)cn2)c1 (stereo not drawn) [NUCC-0077165] | – | – | 6000 nM | – |
| COc1cccc(-n2cc(-c3ccnc(NC4CCOCC4)n3)cn2)c1 [NUCC-0125591] | – | – | 21000 nM | – |
| NC(=O)c1ccc(-c2cnc(OC3CCNC3)nc2-n2cnc3ccccc32)cc1 (stereo not drawn) [NUCC-0201903] | < 1000 nM | < 1000 nM | – | – |
| NC(=O)CNc1ncc(Cl)c(-n2cnc3ccccc32)n1 [NUCC-0176359] | – | – | 1500 nM | IC50 (Mnk2; [5]): 320 nM |
| Cc1nc2ccccc2n1-c1nc(OC2CC(N(C)C)C2)ncc1Cl (stereo not drawn) [NUCC-0201016, 3-((5-chloro-4-(2-methyl-1H-benzo[d]imidazol-1-yl)pyrimidin-2-yl)oxy)-N,N-dimethylcyclobutanamine] | 1000 to 10000 nM | – | – | IC50 (Mnk2): 1000 to 10000 nM |
| c1ccc2c(c1)OCCN2c1ccnc(NCCc2ccncc2)n1 [NUCC-0176230] | – | – | 5100 nM | IC50 (Mnk2; [5]): 3500 nM |
| O=c1oc2ccccc2n1-c1ccnc(NCCc2ccncc2)n1 [NUCC-0176353] | – | – | 9500 nM | IC50 (Mnk2; [5]): 6800 nM |
| Nc1cc(-n2cnc3ccccc32)nc(NCCc2ccncc2)n1 [NUCC-0196307] | – | – | – | IC50 (Mnk1; [3]): 870 nM; IC50 (Mnk2; [4]): 170 nM |
| N#Cc1cnc(OCc2ccccn2)nc1-n1cnc2ccccc21 [NUCC-0200902] | < 1000 nM | < 1000 nM | – | – |
| O[C@H](c1ccccc1)[C@@H](Nc1ccnc(-n2cnc3ccccc32)n1)c1ccccc1 [NUCC-0196259] | – | – | – | IC50 (Mnk1; [3]): 5600 nM; IC50 (Mnk2; [4]): 320 nM |
| NC1CC(Oc2ncc(-c3ccccc3OC(F)(F)F)c(-n3cnc4ccccc43)n2)C1 (stereo not drawn) [NUCC-0201898, 3-((4-(1H-benzo[d]imidazol-1-yl)-5-(2-(trifluoromethoxy)phenyl)pyrimidin-2-yl)oxy)cyclobutan-1-amine] | – | < 1000 nM | – | – |
| N#Cc1cnc(OC2CCc3cccnc32)nc1-n1cnc2ccccc21 (stereo not drawn) [NUCC-0200905] | > 10000 nM | – | – | IC50 (Mnk2): 1000 to 10000 nM |
| c1ccc2c(c1)NCCN2c1ccnc(NCCc2ccncc2)n1 [NUCC-0175722] | – | – | 1200 nM | IC50 (Mnk2; [5]): 250 nM |
| Clc1cccc(CCOc2ncc(Cl)c(-n3cnc4ccccc43)n2)n1 [NUCC-0201021] | < 1000 nM | < 1000 nM | – | – |
| c1ccc2c(c1)ncn2-c1ccnc(NCCc2ccncc2)c1 [NUCC-0196262] | – | – | – | IC50 (Mnk1; [3]): 1300 nM; IC50 (Mnk2; [4]): 1200 nM |

Now from value to molecule, other results behind:

| IC50 (Mnk1; [1]) | IC50 (Mnk2; [2]) | IC50 (Mnk1; read-out: Mnk1 IC50) | Structure (SMILES) | further results |
| --- | --- | --- | --- | --- |
| 1000 to 10000 nM | – | – | OC1CC(Nc2ncc(Cl)c(-n3cnc4ccccc43)n2)C1 (stereo not drawn) [NUCC-0201003] | IC50 (Mnk2): 1000 to 10000 nM |
| 1000 to 10000 nM | – | – | Clc1cnc(NC2C3CC2C3)nc1-n1cnc2ccccc21 (stereo not drawn) [NUCC-0201136] | IC50 (Mnk2): 1000 to 10000 nM |
| < 1000 nM | < 1000 nM | – | Clc1cnc(OC2CCC2)nc1-n1cnc2ccccc21 [NUCC-0201048] | – |
| – | < 1000 nM | – | OC1CCN(c2ncc(Cl)c(-n3cnc4ccccc43)n2)CC1 [NUCC-0200781] | – |
| < 1000 nM | < 1000 nM | – | Fc1cnc(NC23CC(C2)C3)nc1-n1cnc2ccccc21 [NUCC-0201887] | – |
| – | – | 1000 nM | c1ccc2c(c1)ncn2-c1ccnc(NCCN2CCOCC2)n1 [NUCC-0060956] | – |
| – | – | 390 nM | OC1CCC(Nc2nccc(-n3cnc4ccccc43)n2)CC1 (stereo not drawn) [NUCC-0176166] | IC50 (Mnk2; [5]): 63 nM |
| 1000 to 10000 nM | – | – | CCOC(=O)c1cnc(NC2CNC(=O)C2)nc1-n1cnc2ccccc21 (stereo not drawn) [NUCC-0201889] | IC50 (Mnk2): 1000 to 10000 nM |
| < 1000 nM | < 1000 nM | – | c1ccc2c(c1)ncn2-c1ccnc(OC2CCNC2)n1 (stereo not drawn) [NUCC-0201896] | – |
| 1000 to 10000 nM | – | – | Clc1cnc(CCc2ccccn2)nc1-n1cnc2ccccc21 [NUCC-0201706, 1-(5-chloro-2-(2-(pyridin-2-yl)ethyl)pyrimidin-4-yl)-1H-benzo[d]imidazole] | IC50 (Mnk2): 1000 to 10000 nM |
| < 1000 nM | < 1000 nM | – | c1ccc2c(c1)ncn2-c1nc(OC2CCNC2)ncc1-c1ccsc1 (stereo not drawn) [NUCC-0201902] | – |
| – | – | 4100 nM | Nc1ccnc(-n2cnc3ccccc32)n1 [NUCC-0176349] | IC50 (Mnk2; [5]): 1400 nM |
